Inhibition and IC50 data for 2 compounds are collected here from article PMC12440886, “Inhibition of the oncogenic channel Kv10.1 by the antipsychotic drug penfluridol” (Frontiers in Pharmacology, 2025).

In test [1] the target is T1, Kv10.1 (Homo sapiens, UniProt O95259).
T1 construct: gene KCNH1
T1 sequence (O95259 1-989): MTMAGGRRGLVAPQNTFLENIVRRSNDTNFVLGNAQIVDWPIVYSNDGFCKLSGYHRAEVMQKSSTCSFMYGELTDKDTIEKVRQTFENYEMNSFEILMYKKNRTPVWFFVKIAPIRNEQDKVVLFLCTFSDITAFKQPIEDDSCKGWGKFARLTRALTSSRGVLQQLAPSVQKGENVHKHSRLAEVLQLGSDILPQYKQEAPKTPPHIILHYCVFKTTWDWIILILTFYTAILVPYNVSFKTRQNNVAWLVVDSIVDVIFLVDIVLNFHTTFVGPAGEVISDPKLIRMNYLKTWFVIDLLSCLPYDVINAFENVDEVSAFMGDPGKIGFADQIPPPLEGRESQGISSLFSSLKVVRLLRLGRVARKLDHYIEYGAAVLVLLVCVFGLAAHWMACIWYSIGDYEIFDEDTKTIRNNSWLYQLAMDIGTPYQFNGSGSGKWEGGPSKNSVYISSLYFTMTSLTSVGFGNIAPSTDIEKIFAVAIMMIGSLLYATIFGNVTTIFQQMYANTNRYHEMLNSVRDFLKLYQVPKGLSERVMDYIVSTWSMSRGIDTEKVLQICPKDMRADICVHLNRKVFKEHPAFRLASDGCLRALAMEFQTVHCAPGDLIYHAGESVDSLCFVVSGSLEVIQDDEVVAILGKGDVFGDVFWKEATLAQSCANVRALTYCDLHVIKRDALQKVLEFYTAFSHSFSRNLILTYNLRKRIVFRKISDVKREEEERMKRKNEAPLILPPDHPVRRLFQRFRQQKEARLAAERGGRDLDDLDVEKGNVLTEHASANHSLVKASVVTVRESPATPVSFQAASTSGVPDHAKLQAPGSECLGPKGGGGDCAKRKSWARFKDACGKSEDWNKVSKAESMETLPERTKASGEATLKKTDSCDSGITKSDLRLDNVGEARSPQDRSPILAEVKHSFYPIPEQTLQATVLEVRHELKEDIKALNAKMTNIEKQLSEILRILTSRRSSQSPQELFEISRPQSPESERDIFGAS
Put plainly: FLIPR membrane potential fluorescence assay in HEK-Kv10.[…] cells, single concentration ([…]). Type of test: cell-based. The note with it: read-out: % decrease in response amplitude at 100 μM.

In test [2] the target is T1, Kv10.1. Put plainly: whole-cell patch-clamp, HEK293 cells stably expressing human Kv10.[…]. Type of test: cell-based.

`CN(C)C(=O)C(CCN1CCC(O)(c2ccc(Cl)cc2)CC1)(c1ccccc1)c1ccccc1` [LP, loperamide]: in test [1], the inhibition at 100 µM was determined as 46.1%.

In general, IC50 refers to the concentration that inhibits the measured activity by half. Lower therefore signals greater potency. In the case of `OC1(c2ccc(Cl)c(C(F)(F)F)c2)CCN(CCCC(c2ccc(F)cc2)c2ccc(F)cc2)CC1` [PNFL, penfluridol], half-maximal inhibition in test [2] (IC50) was put at 2.7 ± 0.3 µM.
